Laboratory results from patent publication US11679108B2, “Aromatic heterocyclic compound, and pharmaceutical composition and use thereof” (GUANGZHOU HENOVCOM BIOSCIENCE CO., LTD., priority 2018, dated 2023).

Molecular target: ATX (Homo sapiens, UniProt Q13822)
Assay: Analysis in vitro: LPC was used as substrate for screening enzyme activity (Amplex Red fluorescence)
Format: biochemical
Settings: inhibitory activity against ATX, with LPC as substrate
Source text: Analysis In Vitro: LPC was Used as Substrate for Screening Enzyme Activity
Principle: Lysophosphatidylcholine (LPC) as substrate is hydrolyzed by using the activity of lysoPLD enzyme, to produce lysophosphatidic acid (LPA) and choline, which is oxidized to produce H2O2 under the action of choline oxidase. In presence of horse radish peroxidase (HPR), Amplex Red reagent is reacted with H2O2 in a quantitative chemistry ratio of 1 to 1, to produce strong fluorescence products, which are detected by a fluorescent quantitative test.
Experimental procedures: the compounds to be tested were dissolved in DMSO, to prepare 10 mM of stock solution, which was diluted in a gradient concentration of 3 times with DMSO from 10 mM, to generate 10 concentration gradients. The reaction buffer solution was used for preparing a mixed solution 1 of 2 ng/μl ATX, 2 U/ml HRP and 0.2 U/ml choline oxidase in a final concentration. 20 μl of the above mixed solution 1 was added to each hole of an experiment board, […]. The compounds diluted with DMSO were transferred into an experiment board with Echo550. The reaction buffer solution was used for preparing a mixed solution 2 of […] LPC and 400 μM Amplex Red in a final concentration. 20 μl of the above mixed solution 2 was added to each hole of the experiment board. After addition, the experiment board was shook for 30 seconds on a shaker, and incubated for 30 minutes. Envision was used to read the fluorescence signals with an exciting light at 530 nm and emitted light at 590 nm. Inhibition ratio of the compounds to enzyme reaction was calculated according to the ratio of fluorescence, and IC50 of the compounds was analyzed and calculated by software, seeing Table 1.

IC50 [nM] | SMILES
100 to 500 | CCc1nc2sc(N3CCCC(N(C)S(C)(=O)=O)C3)nn2c1N(C)c1nc(-c2ccc(F)cc2)c(C#N)s1 (stereo not drawn) [Example 13, N-{1-[5-((5-cyano-4-(4-fluorophenyl)thiazol-2-yl)(methyl)amino)-6-ethylimidazo[2,1-b][1,3,4]thiadiazol-2-yl]piperidin-3-yl}-N-methylmethanesulfonamide]
≥ 1000 | CCc1nc2sc(N3CCN(S(C)(=O)=O)CC3)nn2c1N(C)c1nc(-c2ccc(F)cc2)c(C#N)s1 [Example 1]
100 to 500 | CCc1nc2sc(N3CCC(N(C)C(=O)NC4CC4)C3)nn2c1N(C)c1nc(-c2ccc(F)cc2)c(C#N)s1 (stereo not drawn) [Example 27, 1-{1-[5-((5-cyano-4-(4-fluorophenyl)thiazol-2-yl)(methyl)amino)-6-ethylimidazo[2,1-b][1,3,4]thiadiazol-2-yl}pyrrolidin-3-yl}-3-cyclopropyl-1-methylurea]
0.01 to 100 | CCc1nc2sc(N3CCC(N(C)C(=O)NC)C3)nn2c1N(C)c1nc(-c2ccc(F)cc2)c(C#N)s1 (stereo not drawn) [Example 29, 1-{1-[5-((5-cyano-4-(4-fluorophenyl)thiazol-2-yl)(methyl)amino)-6-ethylimidazo[2,1-b][1,3,4]thiadiazol-2-yl}pyrrolidin-3-yl}-1,3-dimethylurea]
100 to 500 | CCc1nc2sc(N3CC[C@@H](N(C)CC(=O)N4CC(F)C4)C3)nn2c1N(C)c1nc(-c2ccc(F)cc2)c(C#N)s1 [Example 39, (R)-2-{[6-ethyl-2-(3-((2-(3-fluoroazetidin-1-yl)-2-oxoethyl)(methyl)amino)pyrrolidin-1-yl)imidazo[2,1-b][1,3,4]thiadiazol-5-yl](methyl)amino}-4-(4-fluorophenyl)thiazole-5-carbonitrile]
100 to 500 | CCc1nc2sc(C3CCN(C(N)=O)CC3)nn2c1N(C)c1nc(-c2ccc(F)cc2)c(C#N)s1 [Example 18, 4-{5-[(5-cyano-4-(4-fluorophenyl)thiazol-2-yl](methyl)amino]-6-ethylimidazo[2,1-b][1,3,4]thiadiazol-2-yl}piperidine-1-carboxamide]
500 to 1000 | CCc1nc2sc(N3CC4(C3)CN(S(C)(=O)=O)C4)nn2c1N(C)c1nc(-c2ccc(F)cc2)c(C#N)s1 [Example 5]
500 to 1000 | CN(c1nc(-c2ccc(F)cc2)c(C#N)s1)c1c(CCO)nc2sc(N3CC[C@@H](N(C)CC(=O)N4CC(O)C4)C3)nn12 [Example 87, (R)-4-(4-fluorophenyl)-2-{[2-(3-((2-(3-hydroxyazetidin-1-yl)-2-oxoethyl)(methyl)amino)pyrrolidin-1-yl)-6-(2-hydroxyethyl)imidazo[2,1-b][1,3,4]thiadiazol-5-yl](methyl)amino}thiazole-5-carbonitrile]
100 to 500 | CCc1nc2sc(N3CC4(CN(CC(=O)N5CC(O)C5)C4)C3)nn2c1N(C)c1nc(-c2ccc(F)cc2)c(C#N)s1 [Example 6]
0.01 to 100 | CCc1nc2sc(N3CCC(N(C)CC(=O)N4CC(F)C4)C3)nn2c1N(C)c1nc(-c2ccc(F)cc2)c(C#N)s1 (stereo not drawn) [Example 33, 2-{[6-ethyl-2-(3-((2-(3-fluoroazetidin-1-yl)-2-oxoethyl)(methyl)amino)pyrrolidin-1-yl)imidazo[2,1-b][1,3,4]thiadiazol-5-yl](methyl)amino}-4-(4-fluorophenyl)thiazole-5-carbonitrile]
0.01 to 100 | CCc1nc2sc(N3CCN(CC(=O)N4CC(O)C4)[C@H](C(=O)OC)C3)nn2c1N(C)c1nc(-c2ccc(F)cc2)c(C#N)s1 [Example 81, methyl (S)-4-{5-[(5-cyano-4-(4-fluorophenyl)thiazol-2-yl)(methyl)amino]-6-ethylimidazo[2,1-b][1,3,4]thiadiazol-2-yl}-1-(2-(3-hydroxyazetidin-1-yl)-2-oxoethyl)piperazine-2-carboxylate]
≥ 1000 | CN(c1nc(-c2ccc(F)cc2)c(C#N)s1)c1c(CCOCc2ccccc2)nc2sc(N3CC[C@@H](N(C)CC(=O)N4CC(O)C4)C3)nn12 [Example 86]
≥ 1000 | CCc1nc2sc(C3CCN(S(C)(=O)=O)CC3)nn2c1N(C)c1nc(-c2ccc(F)cc2)c(C#N)s1 [Example 16, 2-{[6-ethyl-2-(1-(methylsulfonyl)piperidin-4-yl)imidazo[2,1-b][1,3,4]thiadiazol-5-yl](methyl)amino}-4-(4-fluorophenyl)-thiazole-5-carbonitrile]
100 to 500 | CCc1nc2sc(N3CCC(N(C)C(=O)NC(C)(C)C)C3)nn2c1N(C)c1nc(-c2ccc(F)cc2)c(C#N)s1 (stereo not drawn) [Example 25, 3-tertbutyl-1-{1-[5-((5-cyano-4-(4-fluorophenyl)thiazol-2-yl)(methyl)amino)-6-ethylimidazo[2,1-b][1,3,4]thiadiazol-2-yl]pyrrolidin-3-yl}-1-methylurea]
100 to 500 | CCc1nc2sc(N3CC[C@@H](N(C)CC(=O)N4CCOCC4)C3)nn2c1N(C)c1nc(-c2ccc(F)cc2)c(C#N)s1 [Example 40, (R)-2-{[6-ethyl-2-(3-(methyl(2-morpholino-2-oxoethyl)amino)pyrrolidin-1-yl)imidazo[2,1-b][1,3,4]thiadiazol-5-yl](methyl)amino}-4-(4-fluorophenyl)thiazole-5-carbonitrile]
0.01 to 100 | CCc1nc2sc(N3CC[C@@H](N(C=O)CC(=O)N4CC(O)C4)C3)nn2c1N(C)c1nc(-c2ccc(F)cc2)c(C#N)s1 [Example 91, (R)—N-{1-[5-((5-cyano-4-(4-fluorophenyl)thiazol-2-yl)(methyl)amino)-6-ethylimidazo[2,1-b][1,3,4]thiadiazol-2-yl]pyrrolidin-3-yl}-N-(2-(3-hydroxyazetidin-1-yl)-2-oxoethyl)formamide]
0.01 to 100 | CCc1nc2sc(N3CC[C@H](N(C)CC(=O)N4CC(C(=O)OC)C4)C3)nn2c1N(C)c1nc(-c2ccc(F)cc2)c(C#N)s1 [Example 43, methyl (S)-1-{2-[(1-(5-((5-cyano-4-(4-fluorophenyl)thiazol-2-yl)(methyl)amino)-6-ethylimidazo[2,1-b][1,3,4]thiadiazol-2-yl)pyrrolidin-3-yl)(methyl)amino]acetyl}azetidine-3-carboxylate]
100 to 500 | COCCc1nc2sc(N3CC[C@@H](N(C)CC(=O)N4CC(O)C4)C3)nn2c1N(C)c1nc(-c2ccc(F)cc2)c(C#N)s1 [Example 88, (R)-4-(4-fluorophenyl)-2-{[2-(3-((2-(3-hydroxyazetidin-1-yl)-2-oxoethyl)(methyl)amino)pyrrolidin-1-yl)-6-(2-methoxyethyl)imidazo[2,1-b][1,3,4]thiadiazol-5-yl](methyl)amino}thiazole-5-carbonitrile]
0.01 to 100 | CCc1nc2sc(N3CCC(N(C)CC(=O)N4CCOCC4)C3)nn2c1N(C)c1nc(-c2ccc(F)cc2)c(C#N)s1 (stereo not drawn) [Example 34, 2-{[6-ethyl-2-(3-(methyl(2-mophlin-2-oxoethyl)amino)pyrrolidin-1-yl)imidazo[2,1-b][1,3,4]thiadiazol-5-yl](methyl)amino}-4-(4-fluorophenyl)thiazole-5-carbonitrile]
≥ 1000 | CCc1nc2sc(N3CCCC(N(C)C(=O)NC(C)(C)C)C3)nn2c1N(C)c1nc(-c2ccc(F)cc2)c(C#N)s1 (stereo not drawn) [Example 26, 3-tert-butyl-1-{1-[5-((5-cyano-4-(4-fluorophenyl)thiazol-2-yl)(methyl)amino)-6-ethylimidazo[2,1-b][1,3,4]thiadiazol-2-yl]piperidin-3-yl}-1-methylurea]
0.01 to 100 | CCc1nc2sc(N3CCC(N(C)CC(=O)N4CC(C(=O)O)C4)C3)nn2c1N(C)c1nc(-c2ccc(F)cc2)c(C#N)s1 (stereo not drawn) [Example 35, 1-{2-[(1-(5-((5-cyano-4-(4-fluorophenyl)thiazol-2-yl)(methyl)amino)-6-ethylimidazo[2,1-b][1,3,4]thiadiazol-2-yl)pyrrolidin-3-yl)(methyl)amino]acetyl}azetidine-3-carboxylic acid]
100 to 500 | CCc1nc2sc(N3CCC(N(C)S(=O)(=O)C4CC4)C3)nn2c1N(C)c1nc(-c2ccc(F)cc2)c(C#N)s1 (stereo not drawn) [Example 28, N-{1-[5-((5-cyano-4-(4-fluorophenyl)thiazol-2-yl)(methyl)amino)-6-ethylimidazo[2,1-b][1,3,4]thiadiazol-2-yl}pyrrolidin-3-yl}-N-methylcyclopropanesulfonamide]
500 to 1000 | CCc1nc2sc(N3CCC4(CC3)CN(S(C)(=O)=O)C4)nn2c1N(C)c1nc(-c2ccc(F)cc2)c(C#N)s1 [Example 3, 2-{[6-ethyl-2-(4-(methylsulfonyl)-2,7-diazaspiro[3.5]nonan-7-yl)imidazo[2,1-b][1,3,4]thiadiazol-5-yl](methyl)amino}-4-(4-fluorophenyl)thiazole-5-carbonitrile]
100 to 500 | CCc1nc2sc(N3CCC(N(C)C(=O)N4CCOCC4)C3)nn2c1N(C)c1nc(-c2ccc(F)cc2)c(C#N)s1 (stereo not drawn) [Example 32, N-{1-[5-((5-cyano-4-(4-fluorophenyl)thiazol-2-yl)(methyl)amino)-6-ethylimidazo[2,1-b][1,3,4]thiadiazol-2-yl}pyrrolidin-3-yl}-N-methylmorpholine-4-carboxamide]
